In US20090270350A1, “Pyridinone Pyrazole Urea and Pyrimidinone Pyrazole Urea Derivatives” (PFIZER INC., priority 2006, published 2009):
pIC50: −log10 of the molar value.

Target: p38α (Homo sapiens, UniProt Q16539)
Experiment: p38α/MK2 cascade assay
Assay type: biochemical
Details: Table 2; same p38α/MK2 cascade assay; 40 minutes preincubation; read-out: p38a/MK2 Cascade 40 min Pre-Incuabtion (% Inhibition): IC50
How it was run: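 In a cascade format, p38α was preincubated 40 min with inhibitor (1000–0.05 nM) before adding 1 nM nonactive MK2 (54-400), 5 μM MgATP and 0.5 μM FITC-Hsp27 peptide. Reaction ran 60 min in HEPES pH 7.5 with MgCl2, DTT, 2% DMSO, then EDTA-quenched. Peptide phosphorylation was measured by Caliper mobility shift to give IC50.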

Sequence of p38α (Q16539 whole entry): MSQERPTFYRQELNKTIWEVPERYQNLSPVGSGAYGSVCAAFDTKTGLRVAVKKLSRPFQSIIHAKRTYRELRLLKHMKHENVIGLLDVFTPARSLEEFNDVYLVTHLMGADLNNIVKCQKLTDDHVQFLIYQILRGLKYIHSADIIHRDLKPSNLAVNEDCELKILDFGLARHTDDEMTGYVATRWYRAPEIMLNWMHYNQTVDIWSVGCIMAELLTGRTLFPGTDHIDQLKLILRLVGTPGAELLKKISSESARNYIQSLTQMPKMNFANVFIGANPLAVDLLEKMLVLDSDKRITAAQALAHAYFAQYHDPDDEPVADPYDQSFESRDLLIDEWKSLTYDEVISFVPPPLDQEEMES

| pIC50 | Structure (SMILES) |
| --- | --- |
| 8.10 | COc1cccc(Cn2c(C)cc(OCc3ccccc3CNC(=O)Nc3cc(C(C)(C)C)nn3-c3ccc(O)c(Cl)c3)c(Cl)c2=O)c1 [Example 215, 1-[3-tert-butyl-1-(3-chloro-4-hydroxyphenyl)-1H-pyrazol-5-yl]-3-[2-({[3-chloro-1-(3-methoxy-benzyl)-6-methyl-2-oxo-1,2-dihydropyridin-4-yl]oxy}methyl)-benzyl]urea] |
| 8.74 | Cc1ccc(C(=O)NCCO)cc1-n1c(C)cc(OCc2ccccc2CNC(=O)Nc2cc(C(C)(C)C)nn2-c2ccc(O)cc2)c(Cl)c1=O [Example 216, 3-{4-[(2-{[({[3-tert-butyl-1-(4-hydroxyphenyl)-1H-pyrazol-5-yl]amino}carbonyl)amino]methyl}benzyl)oxy]-3-chloro-6-methyl-2-oxopyridin-1(2H)-yl}-N-(2-hydroxyethyl)-4-methyl-benzamide] |
| 8.82 | Cc1ccc(C(=O)NCC(O)CO)cc1-n1c(C)cc(OCc2ccccc2CNC(=O)Nc2cc(C(C)(C)C)nn2-c2ccc(O)cc2)c(Cl)c1=O (stereo not drawn) [Example 217, 3-{4-[(2-{[({[3-tert-butyl-1-(4-hydroxyphenyl)-1H-pyrazol-5-yl]amino}carbonyl)amino]methyl}benzyl)oxy]-3-chloro-6-methyl-2-oxopyridin-1(2H)-yl}-N-(2,3-dihydroxypropyl)-4-methylbenzamide] |
| 8.74 | COCCNC(=O)c1ccc(C)c(-n2c(C)cc(OCc3ccccc3CNC(=O)Nc3cc(C(C)(C)C)nn3-c3ccc(O)cc3)c(Cl)c2=O)c1 [Example 218, 3-{4-[(2-{[({[3-tert-butyl-1-(4-hydroxyphenyl)-1H-pyrazol-5-yl]amino}carbonyl)amino]methyl}benzyl)oxy]-3-chloro-6-methyl-2-oxopyridin-1(2H)-yl}-N-(2-methoxyethyl)-4-methyl-benzamide] |
| 9.05 | Cc1ccc(C(=O)NCC(N)=O)cc1-n1c(C)cc(OCc2ccccc2CNC(=O)Nc2cc(C(C)(C)C)nn2-c2ccc(O)cc2)c(Cl)c1=O [Example 219, N-(2-amino-2-oxoethyl)-3-{4-[(2-{[({[3-tert-butyl-1-(4-hydroxyphenyl)-1H-pyrazol-5-yl]amino}carbonyl)amino]-methyl}benzyl)oxy]-3-chloro-6-methyl-2-oxopyridin-1(2H)-yl}-4-methylbenzamide] |
| 8.85 | Cc1ccc(C(=O)N[C@@H](C)C(N)=O)cc1-n1c(C)cc(OCc2ccccc2CNC(=O)Nc2cc(C(C)(C)C)nn2-c2ccc(O)cc2)c(Cl)c1=O [Example 220, N-[(1S)-2-amino-1-methyl-2-oxoethyl]-3-{4-[(2-{[({[3-tert-butyl-1-(4-hydroxyphenyl)-1H-pyrazol-5-yl]amino}carbonyl)-amino]methyl}benzyl)oxy]-3-chloro-6-methyl-2-oxopyridin-1(2H)-yl}-4-methylbenzamide] |
| 7.98 | COC(=O)c1ccc(C)c(-n2c(C)cc(OCc3ccccc3CNC(=O)Nc3cc(C(C)(C)C)nn3-c3ccc(Cl)c(O)c3)c(Cl)c2=O)c1 [Example 221, methyl 3-{4-[(2-{[({[3-tert-butyl-1-(4-chloro-3-hydroxy-phenyl)-1H-pyrazol-5-yl]amino}carbonyl)amino]-methyl}-benzyl)oxy]-3-chloro-6-methyl-2-oxopyridin-1(2H)-yl}-4-methylbenzoate] |
| 8.02 | COC(=O)c1ccc(C)c(-n2c(C)cc(OCc3ccccc3CNC(=O)Nc3cc(C(C)(C)C)nn3-c3ccc(O)c(Cl)c3)c(Cl)c2=O)c1 [Example 222, methyl 3-{4-[(2-{[({[3-tert-butyl-1-(3-chloro-4-hydroxy-phenyl)-1H-pyrazol-5-yl]amino}carbonyl)amino]-methyl}-benzyl)oxy]-3-chloro-6-methyl-2-oxopyridin-1(2H)-yl}-4-methylbenzoate] |
| 8.34 | CNC(=O)c1ccc(C)c(-n2c(C)cc(OCc3ccccc3CNC(=O)Nc3cc(C(C)(C)C)nn3-c3ccc(O)c(Cl)c3)c(Cl)c2=O)c1 [Example 223, 3-{4-[(2-{[({[3-tert-butyl-1-(3-chloro-4-hydroxyphenyl)-1H-pyrazol-5-yl]amino}carbonyl)amino]methyl}benzyl)oxy]-3-chloro-6-methyl-2-oxopyridin-1(2H)-yl}-N,4-dimethylbenzamide] |
| 8.49 | Cc1ccc(C(=O)NCCO)cc1-n1c(C)cc(OCc2ccccc2CNC(=O)Nc2cc(C(C)(C)C)nn2-c2ccc(O)c(Cl)c2)c(Cl)c1=O [Example 224, 3-{4-[(2-{[({[3-tert-butyl-1-(3-chloro-4-hydroxyphenyl)-1H-pyrazol-5-yl]amino}carbonyl)amino]methyl}benzyl)oxy]-3-chloro-6-methyl-2-oxopyridin-1(2H)-yl}-N-(2-hydroxyethyl)-4-methylbenzamide] |
| 8.52 | COCCNC(=O)c1ccc(C)c(-n2c(C)cc(OCc3ccccc3CNC(=O)Nc3cc(C(C)(C)C)nn3-c3ccc(O)c(Cl)c3)c(Cl)c2=O)c1 [Example 225, 3-{4-[(2-{[({[3-tert-butyl-1-(3-chloro-4-hydroxyphenyl)-1H-pyrazol-5-yl]amino}carbonyl)amino]methyl}benzyl)oxy]-3-chloro-6-methyl-2-oxopyridin-1(2H)-yl}-N-(2-methoxyethyl)-4-methylbenzamide] |
| 8.44 | CNC(=O)c1ccc(C)c(-n2c(C)cc(OCc3ccccc3CNC(=O)Nc3cc(C(C)(C)C)nn3-c3ccc(Cl)c(O)c3)c(Cl)c2=O)c1 [Example 226, 3-{4-[(2-{[({[3-tert-butyl-1-(4-chloro-3-hydroxyphenyl)-1H-pyrazol-5-yl]amino}carbonyl)amino]methyl}benzyl)oxy]-3-chloro-6-methyl-2-oxopyridin-1(2H)-yl}-N,4-dimethylbenzamide] |
| 8.70 | Cc1ccc(C(=O)NCC(O)CO)cc1-n1c(C)cc(OCc2ccccc2CNC(=O)Nc2cc(C(C)(C)C)nn2-c2ccc(O)c(Cl)c2)c(Cl)c1=O (stereo not drawn) [Example 227, 3-{4-[(2-{[({[3-tert-butyl-1-(3-chloro-4-hydroxyphenyl)-1H-pyrazol-5-yl]amino}carbonyl)amino]methyl}benzyl)oxy]-3-chloro-6-methyl-2-oxopyridin-1(2H)-yl}-N-(2,3-dihydroxy-propyl)-4-methylbenzamide] |
| 8.68 | Cc1ccc(C(=O)NCCO)cc1-n1c(C)cc(OCc2ccccc2CNC(=O)Nc2cc(C(C)(C)C)nn2-c2ccc(Cl)c(O)c2)c(Cl)c1=O [Example 228, 3-{4-[(2-{[({[3-tert-butyl-1-(4-chloro-3-hydroxyphenyl)-1H-pyrazol-5-yl]amino}carbonyl)amino]methyl}benzyl)oxy]-3-chloro-6-methyl-2-oxopyridin-1(2H)-yl}-N-(2-hydroxyethyl)-4-methylbenzamide] |
| 8.64 | Cc1ccc(C(=O)NCCN(C)C)cc1-n1c(C)cc(OCc2ccccc2CNC(=O)Nc2cc(C(C)(C)C)nn2-c2ccc(O)c(Cl)c2)c(Cl)c1=O [Example 229, 3-{4-[(2-{[({[3-tert-butyl-1-(3-chloro-4-hydroxyphenyl)-1H-pyrazol-5-yl]amino}carbonyl)amino]methyl}benzyl)oxy]-3-chloro-6-methyl-2-oxopyridin-1(2H)-yl}-N-[2-(dimethylamino)-ethyl]-4-methylbenzamide] |
| 8.72 | COCCNC(=O)c1ccc(C)c(-n2c(C)cc(OCc3ccccc3CNC(=O)Nc3cc(C(C)(C)C)nn3-c3ccc(Cl)c(O)c3)c(Cl)c2=O)c1 [Example 230, 3-{4-[(2-{[({[3-tert-butyl-1-(4-chloro-3-hydroxyphenyl)-1H-pyrazol-5-yl]amino}carbonyl)amino]methyl}benzyl)oxy]-3-chloro-6-methyl-2-oxopyridin-1(2H)-yl}-N-(2-methoxyethyl)-4-methylbenzamide] |
| 8.74 | Cc1ccc(C(=O)NCCN(C)C)cc1-n1c(C)cc(OCc2ccccc2CNC(=O)Nc2cc(C(C)(C)C)nn2-c2ccc(Cl)c(O)c2)c(Cl)c1=O [Example 231, 3-{4-[(2-{[({[3-tert-butyl-1-(4-chloro-3-hydroxyphenyl)-1H-pyrazol-5-yl]amino}carbonyl)amino]methyl}benzyl)oxy]-3-chloro-6-methyl-2-oxopyridin-1(2H)-yl}-N-[2-(dimethylamino)-ethyl]-4-methylbenzamide] |
| 8.36 | COC(=O)c1ccc(C)c(-n2c(C)cc(OCc3ccc(F)cc3CNC(=O)Nc3cc(C(C)(C)C)nn3-c3ccc(O)cc3)c(Cl)c2=O)c1 [Example 232, methyl 3-{4-[(2-{[({[3-tert-butyl-1-(4-hydroxyphenyl)-1H-pyrazol-5-yl]amino}carbonyl)amino]methyl}-4-fluorobenzyl)-oxy]-3-chloro-6-methyl-2-oxopyridin-1(2H)-yl}-4-methylbenzoate] |
| 8.82 | Cc1ccc(C(=O)NCC(N)=O)cc1-n1c(C)cc(OCc2ccccc2CNC(=O)Nc2cc(C(C)(C)C)nn2-c2ccc(O)c(Cl)c2)c(Cl)c1=O [Example 233, N-(2-amino-2-oxoethyl)-3-{4-[(2-{[({[3-tert-butyl-1-(3-chloro-4-hydroxyphenyl)-1H-pyrazol-5-yl]amino}carbonyl)amino]-methyl}benzyl)oxy]-3-chloro-6-methyl-2-oxopyridin-1(2H)-yl}-4-methylbenzamide] |
| 8.89 | Cc1ccc(C(=O)NCC(O)CO)cc1-n1c(C)cc(OCc2ccccc2CNC(=O)Nc2cc(C(C)(C)C)nn2-c2ccc(Cl)c(O)c2)c(Cl)c1=O (stereo not drawn) [Example 234, 3-{4-[(2-{[({[3-tert-butyl-1-(4-chloro-3-hydroxyphenyl)-1H-pyrazol-5-yl]amino}carbonyl)amino]methyl}benzyl)oxy]-3-chloro-6-methyl-2-oxopyridin-1(2H)-yl}-N-(2,3-dihydroxy-propyl)-4-methylbenzamide] |
| 8.38 | COCCNC(=O)c1ccc(C)c(-n2c(C)cc(OCc3ccc(F)cc3CNC(=O)Nc3cc(C(C)(C)C)nn3-c3ccc(Cl)c(O)c3)c(Cl)c2=O)c1 [Example 235, 3-{4-[(2-{[({[3-tert-butyl-1-(4-chloro-3-hydroxyphenyl)-1H-pyrazol-5-yl]amino}carbonyl)amino]methyl}-4-fluorobenzyl)-oxy]-3-chloro-6-methyl-2-oxopyridin-1(2H)-yl}-N-(2-methoxy-ethyl)-4-methylbenzamide] |
